Some test systems named below: CAKI-1 renal; K-562 leukemia; MCF7 breast; RXF 393 renal; SK-MEL-28 melanoma; SK-MEL-5 melanoma; SN12C renal; SNB-19 CNS; SR leukemia; UACC-257 melanoma.
What all share (assay): NCI anticancer screen, dose series, 48 h

The structures appear in SMILES notation. Values joined by “and” are separate entries in the source; they are usually repeats but may differ in a detail not shown here. Equal values may be shown once.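 Following 48 hours of exposure in 96-well plates, responses at five concentrations were used to interpolate endpoints linearly. At the GI50, growth is halved. TGI denotes the concentration required for complete inhibition of growth.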 Some results are limits rather than exact numbers.

We go through 7 molecules from PubChem BioAssay (NCI).

As to `O=C1/C(=C/c2cccc(Br)c2)COc2ccc(O)c(O)c21`, the GI50 with CAKI-1 renal was 1.21 µM; with K-562 leukemia it was 0.387 µM; in the test on MCF7 breast, 0.649 µM; in the test on RXF 393 renal, 1.38 µM; in the test on SK-MEL-28 melanoma, 1.75 µM; in the test on SK-MEL-5 melanoma, 1.63 µM. In addition, the GI50 is 1.2 µM in the test on SN12C renal, 1.53 µM with SNB-19 CNS, 0.349 µM in the test on SR leukemia and 1.54 µM in the test on UACC-257 melanoma. The TGI with CAKI-1 renal was found to be 2.47 µM; in the test on K-562 leukemia it was 20.7 µM; in the test on MCF7 breast, 2.56 µM; in the test on RXF 393 renal, 2.84 µM; in the test on SK-MEL-28 melanoma, 3.33 µM; with SK-MEL-5 melanoma it was 3.03 µM. Further, the TGI stood at 3.04 µM in the test on SN12C renal, 3.04 µM in the test on SNB-19 CNS, 2.81 µM in the test on SR leukemia and 3.03 µM in the test on UACC-257 melanoma.

Regarding `Nc1n[nH]c(N)c1N=Nc1ccc(O)cc1`, the GI50 is 14.7 µM in the test with CAKI-1 renal; 9.17 µM in the test with K-562 leukemia; 23.5 µM in the test on MCF7 breast; 18.4 µM with RXF 393 renal; 22.1 µM in the test with SK-MEL-28 melanoma; 13.9 µM in the test with SK-MEL-5 melanoma. In addition, the GI50 in the test with SN12C renal is 23.3 µM; in the test with SNB-19 CNS, 29.8 µM; in the test with SR leukemia, 10.3 µM; in the test with UACC-257 melanoma, 24.4 µM. The TGI in the test with CAKI-1 renal is 63.9 µM; with K-562 leukemia, > 100 µM; in the test with MCF7 breast, 90.8 µM; in the test with RXF 393 renal, 43.9 µM; in the test on SK-MEL-28 melanoma, 63.8 µM; in the test with SK-MEL-5 melanoma, 30.9 µM. The TGI is > 100 µM in the test with SN12C renal, > 100 µM in the test with SNB-19 CNS, 59.8 µM in the test on SR leukemia and 85.1 µM with UACC-257 melanoma.

As for `O=c1cccc(C#CC#CCCCO)o1`, the GI50 in the test on CAKI-1 renal was 2.9 µM; in the test on K-562 leukemia, 4.08 µM; in the test with MCF7 breast it was 5.02 µM; in the test on RXF 393 renal, 3.27 µM; in the test on SK-MEL-28 melanoma, 5.85 µM; in the test on SK-MEL-5 melanoma it was 12.3 µM. In addition, the GI50 in the test on SN12C renal is 5.21 µM; with SNB-19 CNS it was 9.13 µM; in the test on SR leukemia, 0.158 µM; in the test with UACC-257 melanoma it was 3.48 µM. The TGI in the test on CAKI-1 renal is 8.17 µM; with K-562 leukemia, > 100 µM; with MCF7 breast it was 38.3 µM; in the test on RXF 393 renal it was 11.5 µM; with SK-MEL-28 melanoma it was 22.2 µM; in the test on SK-MEL-5 melanoma, 27.3 µM. The TGI in the test with SN12C renal came to 16.7 µM; in the test on SNB-19 CNS it was 39.1 µM; in the test with SR leukemia, 2.37 µM; with UACC-257 melanoma, 15.8 µM.

In the case of `CCN1C(=O)N(CC)C2C1NN=c1s/c(=C\c3ccc[nH]3)c(=O)n12` (stereo not drawn), the GI50 was 0.301 µM with CAKI-1 renal; 0.245 µM in the test with K-562 leukemia; 0.273 µM with MCF7 breast; 0.286 µM with RXF 393 renal; 0.309 µM in the test on SK-MEL-5 melanoma; 0.991 µM in the test on SN12C renal. For the same molecule, the GI50 was 0.626 µM in the test with SNB-19 CNS, 0.148 µM in the test with SR leukemia and > 100 µM in the test with UACC-257 melanoma. The TGI with CAKI-1 renal was > 100 µM; in the test on K-562 leukemia it was > 100 µM; with MCF7 breast, > 100 µM; in the test on RXF 393 renal, 2.19 µM; in the test on SK-MEL-28 melanoma, > 100 µM; with SK-MEL-5 melanoma it was > 41.5 µM. Further, the TGI in the test on SN12C renal was > 100 µM; with SNB-19 CNS, > 100 µM; with SR leukemia, > 38.2 µM; with UACC-257 melanoma, > 100 µM.

`C=CCCCOC1[C@H](OCc2ccccc2)C(OCc2ccccc2)C(OC)O[C@@H]1CNC(=O)c1cccc(I)c1` (stereo partly drawn): the GI50 in the test on CAKI-1 renal is 11.5 µM; in the test with K-562 leukemia, 2.7 µM; in the test with MCF7 breast it was 3.5 µM; in the test on RXF 393 renal, 3.91 µM; in the test with SK-MEL-28 melanoma it was 8.51 µM; with SK-MEL-5 melanoma, 2.2 µM. Further, the GI50 in the test with SN12C renal is 8.53 µM; with SNB-19 CNS it was 6.35 µM; in the test on SR leukemia, 2.9 µM; with UACC-257 melanoma, 8.82 µM. Moreover, the TGI is > 100 µM in the test on CAKI-1 renal; > 100 µM in the test on K-562 leukemia; > 100 µM with MCF7 breast; > 100 µM in the test on RXF 393 renal; > 100 µM in the test with SK-MEL-28 melanoma; 16.2 µM in the test on SK-MEL-5 melanoma. The TGI in the test with SN12C renal was > 100 µM; in the test with SNB-19 CNS, > 100 µM; with SR leukemia it was 14.6 µM; in the test on UACC-257 melanoma it was > 100 µM.

As to `C[C@@H]1COCCN1c1cc(-c2ccnn2C)c2ccnc(-c3ccn[nH]3)c2n1`, the GI50 with CAKI-1 renal is 0.125 µM and 0.223 µM; in the test on K-562 leukemia, 0.0844 µM and 0.384 µM; with MCF7 breast, 0.0158 µM and 0.0425 µM; with RXF 393 renal, 0.0236 µM and 0.0851 µM; with SK-MEL-28 melanoma, 0.361 µM and 0.777 µM; with SK-MEL-5 melanoma it was 0.222 µM and 0.286 µM. Also, the GI50 in the test on SN12C renal is 0.184 µM and 0.314 µM; in the test on SNB-19 CNS, 0.23 µM and 0.31 µM; in the test on SR leukemia, 0.0241 µM and 0.103 µM; with UACC-257 melanoma, 0.264 µM and 0.721 µM. Further, the TGI in the test on CAKI-1 renal is 0.9 µM and 1.8 µM; with K-562 leukemia, > 100 µM; in the test with MCF7 breast it was 23.8 µM and > 100 µM; in the test on RXF 393 renal, 0.0776 µM and 0.497 µM; with SK-MEL-28 melanoma, 4.2 µM and 16.8 µM; with SK-MEL-5 melanoma, 0.766 µM and 2.52 µM. The TGI is > 100 µM with SN12C renal; > 100 µM in the test on SNB-19 CNS; 2.81 µM and 6.9 µM with UACC-257 melanoma.

Regarding `NS(=O)(=O)c1cccc(-c2ccc3c(NC(=O)C4CC4)n[nH]c3c2)c1`, the GI50 in the test with CAKI-1 renal is > 25 µM; in the test on K-562 leukemia it was 8.38 µM; in the test on MCF7 breast it was > 13.3 µM; with RXF 393 renal it was > 15 µM; in the test with SK-MEL-28 melanoma, 15.7 µM; with SK-MEL-5 melanoma, > 14.7 µM. Moreover, the GI50 with SN12C renal is > 21.1 µM; with SNB-19 CNS it was 20.4 µM; in the test on SR leukemia, 3.59 µM; in the test with UACC-257 melanoma it was > 18.1 µM. Further, the TGI in the test on CAKI-1 renal was > 25 µM; in the test on K-562 leukemia, > 25 µM; in the test on MCF7 breast, > 24.1 µM; with RXF 393 renal, > 25 µM; in the test on SK-MEL-28 melanoma, > 25 µM; in the test with SK-MEL-5 melanoma it was > 25 µM. Moreover, the TGI in the test with SN12C renal, in the test with SNB-19 CNS, in the test on SR leukemia and in the test with UACC-257 melanoma was > 25 µM each time.
